In patent US7300770B2, “Detection of microbe contamination on elastomeric articles” (Kimberly-Clark Worldwide, Inc., priority 2004, dated 2007):

What was measured:
aged chicken juice [1] = test: N-docosyl merocyanine dye on cotton fabric spotted with aged chicken juice
aged chicken juice [2] = test: Comparative dyes dropped onto aged chicken juice on paper towel; conditions: aged chicken juice on SCOTT paper towel
[3] = system: aged urine (approximately 1x10^5 CFU/milliliters); test: N-methyl merocyanine coated towel exposed to aged female human urine; conditions: aged urine filtered through 0.2-micron filter
budgie feces suspension = test: N-methyl merocyanine coated towel exposed to budgerigar feces suspension; conditions: tap water control
Text: Budgerigar feces was collected from a caged pet budgie, and shaken in approximately 10 milliliters of Atlanta city domestic tap water.

[4] = Reichardt's dye and TMB coated towel exposed to dilute bleach; conditions: towel coated with mixture of Reichardt's dye and TMB

CCCCCCCCCCCCCCCCCCCCCC[n+]1ccc(C=Cc2ccc(O)cc2)cc1.[Br-]
Color change on spotting aged chicken juice (aged chicken juice [1]; orange-yellow dye spots on cotton fabric): color change to very pale yellow
Color change on spotting aged chicken juice (aged chicken juice [1]; pinkish-orange areas (dye + NaOH soln.)): pinkish-orange to very pale yellow

CC(=O)Nc1ccc(/N=N/c2c(N)ccc3cc(S(=O)(=O)[O-])cc(O)c23)c(S(=O)(=O)[O-])c1.[Na+].[Na+] [Acid Red 37]
Color change on dropping dye onto aged chicken juice (aged chicken juice [2]): No color changes were observed

O=C([O-])C1=NN(c2ccc(S(=O)(=O)[O-])cc2)C(=O)C1N=Nc1ccc(S(=O)(=O)[O-])cc1.[Na+].[Na+].[Na+] (centres unmarked) [Acid Yellow 23]
Color change on dropping dye onto aged chicken juice (aged chicken juice [2]): No color changes were observed

O=C1/C(=C2\Nc3ccc(S(=O)(=O)[O-])cc3C2=O)Nc2ccc(S(=O)(=O)[O-])cc21.[Na+].[Na+] [Cl Acid Blue 74]
Color change on dropping dye onto aged chicken juice (aged chicken juice [2]): No color changes were observed

Cc1ccc(Nc2ccc(Nc3ccc(C)cc3S(=O)(=O)[O-])c3c2C(=O)c2ccccc2C3=O)c(S(=O)(=O)[O-])c1.[Na+].[Na+] [Cl Acid Green 25]
Color change on dropping dye onto aged chicken juice (aged chicken juice [2]): No color changes were observed

Cc1ccc(Nc2ccc(Nc3ccc(C)cc3S(=O)(=O)[O-])c3c2C(=O)c2c(O)ccc(O)c2C3=O)c(S(=O)(=O)[O-])c1.[Na+].[Na+] [Cl Acid Green 41]
Color change on dropping dye onto aged chicken juice (aged chicken juice [2]): No color changes were observed

CCN(CC)c1ccc2c(-c3ccc(S(=O)(=O)[O-])cc3S(=O)(=O)[O-])c3ccc(=[N+](CC)CC)cc-3oc2c1.[Na+] [Cl Acid Red 52]
Color change on dropping dye onto aged chicken juice (aged chicken juice [2]): No color changes were observed

COc1cc(/C=C/c2cc[n+](C)cc2)ccc1[O-] [N-methyl merocyanine dye]
Color change of coated towel [3]: did not cause a color change
Color change of coated towel (budgie feces suspension): remained orange

Cc1cc(-c2cc(C)c(N)c(C)c2)cc(C)c1N [TMB]
Color response to dilute bleach solution [4]: turning orange/yellow color
